# Patent US6235754A, “Methods and compositions for protecting animals and humans against attack and infestation by arthropod and helminth parasites” (American Cyanamid Company, priority 1999, dated 2001)
# Like-named read-outs stand apart in the source and are kept apart here.
# System: Ctenocephalides felis (cat flea)
# Test: Contact activity against the adult cat flea (Table I)
# Type: in vivo
# Conditions: topical
# Protocol: This test is designed to evaluate the contact activity of test compounds against the adult cat flea. Test compounds are dissolved in 100% acetone to 300, 100, 10 and 1 ppm. 100 μL of each of these dilutions is added to the bottom of a 20 mL glass scintillation vial with a pipettor. The vial is allowed to dry under a fume hood for 15 minutes. The bottom of the vial measures 4.909 cm^2. The amount of test compound applied by each dilution equals 6.2, 2.0, 0.2 and 0.02 μg/cm^2, respectively. Newly emerged adult cat fleas are anesthetized with CO2 to immobilize, and are counted into the scintillation vials with forceps. Five fleas are placed in each vial. These tests are done in replicates of two or three so that there are 10 to 15 fleas per rate/compound. Mortality readings are taken 4 and 24 hours after placing the fleas in the vials. […] Percent mortality is then calculated for each treatment.
# [1] = 4 h, read-out: 4 Hour % Mortality
# [2] = 24 h, read-out: 24 Hour % Mortality
SMILES,mortality at 0.02 µg/cm2 [1] [%],mortality at 0.2 µg/cm2 [1] [%],mortality at 2 µg/cm2 [1] [%],mortality at 6.2 µg/cm2 [1] [%],mortality at 0.02 µg/cm2 [2] [%],mortality at 0.2 µg/cm2 [2] [%],mortality at 2 µg/cm2 [2] [%],mortality at 6.2 µg/cm2 [2] [%]
"CCOc1ccc(C(/C(F)=C/Cc2cccc(Oc3ccccc3)c2)C2CC2)cc1 (racemic) [Compound 14, 1-[1-(p-Ethoxyphenyl)-2-fluoro-4-(m-phenoxyphenyl)-2-butenyl]cyclopropane, (R,S)-(Z)-]",10,20,20,50,30,60,100,100
"F/C(=C\Cc1cccc(Oc2ccccc2)c1)C(c1ccc(F)cc1)C1CC1 (racemic) [Compound 15, 1-[2-Fluoro-1-(p-fluorophenyl)-4-(m-phenoxyphenyl)-2-butenyl]cyclopropane, (R,S)-(Z)-]",,44,80,100,,78,100,100
"CCOc1ccc(C(/C(F)=C/Cc2ccc(F)c(Oc3ccc(F)cc3)c2)C2CC2)cc1 (racemic) [Compound 16, 1-{1-(p-Ethoxyphenyl)-2-fluoro-4-[4-fluoro-3-(p-fluorophenoxy)phenyl]-2-butenyl}cyclopropane, (R,S)-(Z)-]",0,20,71,100,60,50,100,100
"CC(C)(C(F)=CCc1cccc(Oc2ccccc2)c1)c1ccc(Cl)cc1 [Compound 1, 4-(p-Chlorophenyl)-3-fluoro-4-methyl-1-(m-phenoxyphenyl)-2-pentene, (Z)- and (E)-(95:5)]",5,5,10,0,10,20,35,53
"CC(C)(/C(F)=C/Cc1ccc(F)c(Oc2ccccc2)c1)c1ccc(Cl)cc1 [Compound 2, 4-(p-Chlorophenyl)-3-fluoro-1-(4-fluoro-3-phenoxyphenyl)-4-methyl-2-pentene, (Z)-]",5,0,0,22,10,32,58,100
"F/C(=C\Cc1cccc(Oc2ccccc2)c1)C1(c2ccc(Cl)cc2)CC1 [Compound 3, 1-(p-Chlorophenyl)-1-[1-fluoro-3-(m-phenoxyphenyl)propenyl]cyclopropane, (Z)-]",5,0,7,0,5,7,17,13
"F/C(=C\Cc1ccc(F)c(Oc2ccccc2)c1)C1(c2ccc(Cl)cc2)CC1 [Compound 4, 1-(p-Chlorophenyl)-1-[1-fluoro-3-(4-fluoro-3-phenoxyphenyl)propenyl]cyclopropane, (Z)-]",5,7,0,3,16,14,21,28
"F/C(=C\Cc1cccc(Oc2ccccc2)c1)C(c1ccc(Cl)cc1)C1CC1 (stereo not shown) [Compound 6, 1-[1-(p-Chlorophenyl)-2-fluoro-4-(m-phenoxyphenyl)-2-butenyl]cyclopropane, (Z)-]",0,0,56,80,8,28,88,100
"CC(C)C(/C(F)=C/Cc1ccc(F)c(Oc2ccccc2)c1)c1ccc(Cl)cc1 (stereo not shown) [Compound 7, 4-(p-Chlorophenyl)-3-fluoro-1-(4-fluoro-3-phenoxyphenyl)-5-methyl-2-hexene, (Z)-]",0,0,0,0,10,0,0,100
"CC(C)C(/C(F)=C/Cc1cccc(Oc2ccccc2)c1)c1ccc(Cl)cc1 (stereo not shown) [Compound 8, 4-(p-Chlorophenyl)-3-fluoro-5-methyl-1-(m-phenoxyphenyl)-2-hexene, (Z)-]",0,0,0,0,10,0,0,20
"CC(C)(C)C(/C(F)=C/Cc1cccc(Oc2ccccc2)c1)c1ccc(Cl)cc1 (stereo not shown) [Compound 9, 4-(p-Chlorophenyl)-3-fluoro-5-methyl-1-(m-phenoxyphenyl)-5-methyl-2-hexene, (Z)-]",0,0,30,20,40,70,70,80
"CCOc1ccc(C(/C(F)=C/Cc2cccc(Oc3ccccc3)c2)C(C)C)cc1 (stereo not shown) [Compound 11, 4-(p-Ethoxyphenyl)-3-fluoro-5-methyl-1-(m-phenoxyphenyl)-2-hexene, (Z)-]",0,10,30,60,10,40,90,90
"CCOc1ccc(C(/C(F)=C/Cc2cccc(Oc3ccc(F)cc3)c2)C(C)C)cc1 (stereo not shown) [Compound 12, 4-(p-Ethoxyphenyl)-3-fluoro-1-[m-(p-fluorophenoxy)phenyl]-5-methyl-2-hexene, (Z)-]",0,0,10,33,0,10,30,78
"F/C(=C\Cc1cccc(Oc2ccc(F)cc2)c1)C(c1ccc(Cl)cc1)C1CC1 (stereo not shown) [Compound 13, 1-{1-(p-Chlorophenyl)-2-fluoro-4-[m-(p-fluorophenoxy)phenyl]-2-butenyl}cyclopropane, (Z)-]",0,0,5,10,5,33,67,95
"CC(C)C(/C(F)=C(\F)Cc1ccc(F)c(Oc2ccccc2)c1)c1ccc(OC(F)(F)F)cc1 (stereo not shown) [Compound 17, 2,3-Difluoro-1-(4-fluoro-3-phenoxyphenyl)-5-methyl-4-[p-(trifluoromethoxy)phenyl]-2-hexene, (E)-]",0,10,10,10,20,40,50,90
